Among the data in patent publication US11718612B2, “Inhibitors of receptor interacting protein kinase I for the treatment of disease” (Board of Regents, The University of Texas System, priority 2019, dated 2023) are IC50 values, retold here.

Structures are written as SMILES.

The test system of one experiment is U937 cells. As to the kind of experiment: Human U937 cellular necroptosis assay. The experiment is classed as cell-based. The note with it: U-937; U937 cells stimulated with 25 ng/mL human TNFalpha and 25 μM z-VAD-FMK; 22 hr; Cell Titer-Glo viability. On the procedure: Human U937 Cellular Necroptosis Assay
The human monocytic cell line U937 (CRL-1593.2) may be purchased from ATCC. The cells are routinely maintained in RPMI-1640 Medium (Gibco, Catalog #11875-093) supplemented with 10% heat inactivated fetal bovine serum (Gibco, Catalog #16140-071), 100 units/mL penicillin and 100 μg/mL streptomycin (Gibco, Catalog #15140-122), in a humidified incubator (37° C., 5% CO2). For the assay, cells are resuspended in RPMI-1640 phenol red free Media (Gibco, Catalog #11835-030) supplemented with 10% fetal bovine serum (Sigma, Catalog #F2442), 100 units/mL penicillin and 100 ug/mL streptomycin. […] Stock solutions of the test compounds are prepared in 100% DMSO (Sigma, Catalog #D2650) and serially diluted 1:3 using 100% DMSO. Compounds are additionally diluted 1:40 in assay medium, and 10 μL/well was transferred to the plate. Following the compound addition, the plate is incubated at 37° C. and 5% CO2 for 22 hr. After 22 hr, viability is assessed with the addition of 20 μL of Cell Titer-Glo 2.0 (Promega, Catalog #G9243). The tissue culture plate is shaken on an orbital shaker at 300 RPM for 15 minutes at room temperature in the dark. Luminescence is measured using a PerkinElmer Envision™ plate reader. IC50 values are calculated using a four-parameter logistic curve fit using Genedata Screener software.
A general note: In ATP-based viability assays light output follows the ATP content of the culture.

The target of a further experiment is RIPK1 (Homo sapiens (Human), UniProt Q13546). Put plainly: ADP-Glo kinase assay, RIPK1 activity. The experiment is classed as biochemical. The following applies: 5 nM RIPK1, 50 μM ATP, 6 hr reaction. The method, then: In order to measure RIPK1 activity the ADP-Glo kinase assay (Promega, Catalog #V7002) was used to measure the conversion of ATP to ADP. This enzymatic assay was performed in a 384-well white, Optiplate (Perkin Elmer, Catalog #6007299) with assay buffer consisting of 50 mM HEPES pH 7.5 (Gibco, Catalog #15630-080), 50 mM NaCl (Teknova, Catalog #S0252), 30 mM MgCl2 (Ambion, Catalog #AM9530G), 1 mM DTT (Santa Cruz Biotechnology, Catalog #sc-29089), 0.05% BSA (Sigma, Catalog #A3059-50G) and 0.02% CHAPS (Sigma, Catalog #C5070-5G). Stock solutions of the test compounds were prepared in 100% DMSO (Sigma, Catalog #D2650) and serially diluted 1:3 using 100% DMSO. Compounds were additionally diluted 1:40 in assay buffer, and 2 μL/well were transferred to the assay plate. 4 μL/well (final concentration of 5 nM) of RIPK1 protein (SignalChem, Catalog #R07-11G-05) diluted in assay buffer and added to the assay plate followed by a 10 minute preincutation at room temperature. 4 μL/well of ATP (Promega, Catalog #V7002) (final concentration of 50 μM) diluted in assay buffer were then added to the assay plate followed by a 6 hr reaction time. Final concentrations of RIPK1 and ATP refer to a 10 μL volume. Luminescence was measured using a BioTek Synergy™ NEO plate reader. IC50 values were calculated using a four-parameter logistic curve fit using Genedata Screener software.
Sequence of RIPK1 (Q13546 1-327): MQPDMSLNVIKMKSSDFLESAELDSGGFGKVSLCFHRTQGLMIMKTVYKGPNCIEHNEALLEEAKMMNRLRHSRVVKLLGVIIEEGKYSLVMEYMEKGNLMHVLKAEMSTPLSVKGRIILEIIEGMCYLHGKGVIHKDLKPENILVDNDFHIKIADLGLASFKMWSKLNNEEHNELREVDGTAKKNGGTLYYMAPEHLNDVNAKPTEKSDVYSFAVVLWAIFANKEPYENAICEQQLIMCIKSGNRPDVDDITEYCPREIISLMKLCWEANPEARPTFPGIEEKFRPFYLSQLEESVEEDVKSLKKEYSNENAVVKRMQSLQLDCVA
On the technique in general: In ADP-Glo the light output rises with the ADP produced.

As a reminder, the IC50 is the midpoint of a concentration-inhibition curve. For the compound `O=C1c2nn(Cc3ccccc3)c(Cl)c2CCN1c1cccc(Cl)c1F` [Example 2, 2-Benzyl-3-chloro-6-(3-chloro-2-fluoro-phenyl)-4,5-dihydropyrazolo[3,4-c]pyridin-7-one], the concentration for half-maximal inhibition (IC50) in the experiment with U937 cells was 71.2 nM; at RIPK1 it was 17.4 nM.

As to `O=C1c2nn(Cc3cc(F)cc(F)c3)c(Cl)c2CCN1c1cccc(Cl)c1F` [Example 3, 3-Chloro-6-(3-chloro-2-fluorophenyl)-2-(3,5-difluorobenzyl)-5,6-dihydro-2H-pyrazolo[3,4-c]pyridin-7(4H)-one], the figures for the half-maximal inhibitory concentration (IC50) in the experiment on U937 cells and on RIPK1 were 189 nM and 111 nM, respectively.

On to `Cc1nc(C(=O)Nc2cccc(Cl)c2F)nn1Cc1cnccn1` [Example 4, N-(3-Chloro-2-fluoro-phenyl)-5-methyl-1-(pyrazin-2-ylmethyl)-1,2,4-triazole-3-carboxamide], for which the IC50 in the experiment on U937 cells was 1430 nM; at RIPK1, 110 nM.

Take `O=C(Nc1cccc(Cl)c1F)c1n[nH]c(Cc2ccccc2)n1` [Example 9, 5-benzyl-N-(3-chloro-2-fluoro-phenyl)-1H-1,2,4-triazole-3-carboxamide]: the IC50 in the experiment with U937 cells is 6300 nM; on RIPK1, 245 nM.

`Cn1nc(C(=O)Nc2cccc(Cl)c2F)nc1Cc1ccccc1` [Example 10, 5-Benzyl-N-(3-chloro-2-fluoro-phenyl)-1-methyl-1,2,4-triazole-3-carboxamide]: the IC50 in the experiment with U937 cells worked out at 9220 nM; at RIPK1, 702 nM.

Regarding `Cn1cc(-c2cc(F)c(F)c(NC(=O)c3n[nH]c(Cc4ccccc4)n3)c2)cn1` [Example 11, 5-Benzyl-N-(2,3-difluoro-5-(1-methyl-1H-pyrazol-4-yl)-phenyl)-1H-1,2,4-triazole-3-carboxamide], the IC50 was greater than 10000 nM in the experiment on U937 cells and 4060 nM at RIPK1.

In the case of `O=C(Nc1cccc(Cl)c1F)c1ncn(Cc2ccccc2F)n1` [Example 12, N-(3-chloro-2-fluorophenyl)-1-(2-fluorobenzyl)-1H-1,2,4-triazole-3-carboxamide], the figures for the IC50 in the experiment on U937 cells and at RIPK1 were 657 nM and 18.6 nM, respectively.

Consider `Cc1nc(C(=O)Nc2cccc(Cl)c2F)nn1Cc1ccccc1` [Example 13, 1-benzyl-N-(3-chloro-2-fluorophenyl)-5-methyl-1H-1,2,4-triazole-3-carboxamide], for which the half-inhibitory concentration (IC50) was found to be 1270 nM with U937 cells and 41.9 nM on RIPK1.

In the case of `O=C(Nc1cccc(Cl)c1F)c1nnc(Cc2ccccc2)o1` [Example 19, 5-Benzyl-N-(3-chloro-2-fluorophenyl)-1,3,4-oxadiazole-2-carboxamide], the IC50 in the experiment on U937 cells is greater than 10000 nM; at RIPK1 it was 1010 nM.

Turning to `O=C(Nc1ccccc1F)c1n[nH]c(Cc2ccccc2)n1` [Example 20, 5-benzyl-N-(2-fluorophenyl)-1H-1,2,4-triazole-3-carboxamide], the IC50 with U937 cells was found to be 6230 nM; at RIPK1 it was 521 nM.

On to `O=C(Nc1cccc(Cl)c1)c1n[nH]c(Cc2ccccc2)n1` [Example 21, 5-benzyl-N-(3-chlorophenyl)-1H-1,2,4-triazole-3-carboxamide], for which the concentration for half-maximal inhibition (IC50) is greater than 10000 nM in the experiment on U937 cells and 854 nM on RIPK1.

Turning to `O=C(Nc1cccc(F)c1F)c1n[nH]c(Cc2ccccc2)n1` [Example 22, 5-benzyl-N-(2,3-difluorophenyl)-1H-1,2,4-triazole-3-carboxamide], the IC50 in the experiment with U937 cells was greater than 10000 nM; at RIPK1, 1570 nM.

In the case of `O=C(Nc1cc(F)cc(F)c1F)c1n[nH]c(Cc2ccccc2)n1` [Example 23, 5-benzyl-N-(2,3,5-trifluorophenyl)-1H-1,2,4-triazole-3-carboxamide], the concentration for half-maximal inhibition (IC50) is greater than 10000 nM in the experiment with U937 cells and 2260 nM on RIPK1.

For the compound `O=C(Nc1cc(Cl)cc(Cl)c1)c1n[nH]c(Cc2ccccc2)n1` [Example 24, 5-benzyl-N-(3,5-dichlorophenyl)-1H-1,2,4-triazole-3-carboxamide], the values for the IC50 in the experiment on U937 cells and at RIPK1 were greater than 10000 nM and 3360 nM, respectively.

Consider `Cn1cc(-c2cc(Cl)c(F)c(NC(=O)c3n[nH]c(Cc4ccccc4)n3)c2)cn1` [Example 25, 5-benzyl-N-(3-chloro-2-fluoro-5-(1-methyl-1H-pyrazol-4-yl)phenyl)-1H-1,2,4-triazole-3-carboxamide], for which the half-inhibitory concentration (IC50) came to 10000 nM with U937 cells and 4350 nM at RIPK1.

Regarding `O=C(Nc1cccc(Cl)c1F)c1ncn(Cc2ccccc2)n1` [Example 27, 1-benzyl-N-(3-chloro-2-fluorophenyl)-1H-1,2,4-triazole-3-carboxamide], the concentration for half-maximal inhibition (IC50) with U937 cells was found to be 851 nM; at RIPK1, 30.6 nM.

Regarding `O=C(Nc1ccc(F)c(Cl)c1F)c1ncn(Cc2ccccc2)n1` [Example 28, 1-benzyl-N-(3-chloro-2,4-difluorophenyl)-1H-1,2,4-triazole-3-carboxamide], the IC50 turned out to be 1470 nM with U937 cells and 40.3 nM on RIPK1.

Regarding `N#Cc1cccc(Cn2cnc(C(=O)Nc3cccc(Cl)c3F)n2)c1` [Example 29, N-(3-chloro-2-fluorophenyl)-1-(3-cyanobenzyl)-1H-1,2,4-triazole-3-carboxamide], the IC50 turned out to be 356 nM in the experiment with U937 cells and 34.1 nM on RIPK1.

Turning to `COc1ccc(NC(=O)c2ncn(Cc3ccccc3)n2)c(F)c1Cl` [Example 30, 1-benzyl-N-(3-chloro-2-fluoro-4-methoxy-phenyl)-1H-1,2,4-triazole-3-carboxamide], the IC50 with U937 cells turned out to be 1490 nM; at RIPK1, 110 nM.

For the compound `O=C(Nc1ccc(O)c(Cl)c1F)c1ncn(Cc2ccccc2)n1` [Example 31, 1-benzyl-N-(3-chloro-2-fluoro-4-hydroxy-phenyl)-1H-1,2,4-triazole-3-carboxamide], the IC50 came to 1700 nM in the experiment on U937 cells and 160 nM at RIPK1.

Regarding `O=C(Nc1cccc(Cl)c1F)c1ncn(Cc2cnccn2)n1` [Example 32, N-(3-chloro-2-fluoro-phenyl)-1-(pyrazin-2-ylmethyl)-1H-1,2,4-triazole-3-carboxamide], the IC50 came to 1920 nM with U937 cells and 257 nM on RIPK1.

`N#Cc1ccc(Cn2cnc(C(=O)Nc3cccc(Cl)c3F)n2)cc1` [Example 33, N-(3-chloro-2-fluoro-phenyl)-1-(4-cyano-benzyl)-1H-1,2,4-triazole-3-carboxamide]: the half-maximal inhibitory concentration (IC50) was determined as 5420 nM in the experiment with U937 cells and 389 nM on RIPK1.

With `N#Cc1cc(Cl)c(F)c(NC(=O)c2ncn(Cc3ccccc3)n2)c1` [Example 35, 1-benzyl-N-(3-chloro-5-cyano-2-fluorophenyl)-1H-1,2,4-triazole-3-carboxamide], the concentration for half-maximal inhibition (IC50) in the experiment on U937 cells was 7290 nM; at RIPK1, 703 nM.

`Cn1cc(-c2cc(Cl)c(F)c(NC(=O)c3ncn(Cc4ccccc4)n3)c2)cn1` [Example 36, 1-benzyl-N-(3-chloro-2-fluoro-5-(1-methyl-1H-pyrazol-4-yl)phenyl)-1H-1,2,4-triazole-3-carboxamide]: the IC50 in the experiment with U937 cells was 10000 nM; on RIPK1 it was 804 nM.

With `O=C(Nc1cccc(Cl)c1F)c1nc2n(n1)[C@H](c1ccccc1)C[C@@H]2F` [Example 47, (5S,7S)—N-(3-chloro-2-fluorophenyl)-7-fluoro-5-phenyl-6,7-dihydro-5H-pyrrolo[1,2-b][1,2,4]triazole-2-carboxamide], the results for the IC50 in the experiment with U937 cells and at RIPK1 were 24.8 nM and 48.4 nM, respectively.

Regarding `O=C1c2nn(Cc3cc(F)ccc3F)c(Cl)c2CCN1c1cccc(Cl)c1F` [Example 50, 3-Chloro-6-(3-chloro-2-fluorophenyl)-2-(2,5-difluorobenzyl)-5,6-dihydro-2H-pyrazolo[3,4-c]pyridin-7(4H)-one], the results for the concentration for half-maximal inhibition (IC50) in the experiment on U937 cells and on RIPK1 were 42.5 nM and 18.6 nM, respectively.

Consider `O=C(Nc1ccc(OC(F)(F)F)cc1F)c1ncn(Cc2ccccc2)n1` [Example 51, 1-benzyl-N-(2-fluoro-4-(trifluoromethoxy)-phenyl)-1H-1,2,4-triazole-3-carboxamide], for which the IC50 in the experiment on U937 cells was determined as 8240 nM; at RIPK1, 807 nM.

For `O=C(Nc1cccc(Cl)c1F)c1ncn(Cc2cncc(F)c2)n1` [Example 103, N-(3-chloro-2-fluorophenyl)-1-((5-fluoropyridin-3-yl)methyl)-1H-1,2,4-triazole-3-carboxamide], at RIPK1, the IC50 came out at 83.9 nM.
